This is an account of results in ChEMBL document CHEMBL1201862, “PubChem BioAssay data set” (2004).

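Step 1: Grow cells in 96-well plates. Step 2: Expose to compound for 48 hours at 5 concentrations. Step 3: Interpolate endpoints linearly; if unreached, use highest concentration. The concentration for 50% growth inhibition is given as GI50.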 Activity calls are given as the source filed them. Rule as the data show it: active = GI50 up to about 1.1 µM and inactive = higher.

Among the test systems are SNB-19; A549; NCI-H226; UACC-257; HCT-15; OVCAR-4; OVCAR-5; RPMI-8226; SK-MEL-5; SW-620; CAKI-1; K562; Malme-3M; SF-539; SNB-75; HOP-62; SF-268; NCI-H460; U-251; SK-MEL-2.
Common to all, as to experiment: NCI tumour cell line growth inhibition, 48 h

Regarding `Sc1ncc2[nH]nnc2n1`, the GI50 in the test on SNB-19 is > 100 µM (inactive); in the test with A549, > 100 µM (inactive); with NCI-H226 it was > 100 µM (inactive); in the test with UACC-257, > 100 µM (inactive); in the test on HCT-15 it was greater than 100 µM; with OVCAR-4 it was > 100 µM (inactive). The GI50 with OVCAR-5, in the test on RPMI-8226, in the test with SK-MEL-5, in the test with SW-620, in the test with CAKI-1 and in the test on K562 was > 100 µM (inactive) throughout. The GI50 with Malme-3M, in the test with SF-539, in the test with SNB-75, with HOP-62, in the test with SF-268 and in the test on NCI-H460 was > 100 µM (inactive) each time. Also, the GI50 in the test with U-251 is > 100 µM (inactive).

In the case of `CCN(CC)c1ccc(/N=N/c2ccc(-c3nc4cccnc4o3)cc2)cc1`, the GI50 with SNB-19 was > 100 µM (inactive); in the test with A549, > 100 µM (inactive); with NCI-H226, > 100 µM (inactive); with UACC-257, > 100 µM (inactive); in the test with HCT-15 it was greater than 100 µM; with OVCAR-4, > 100 µM (inactive). In addition, the GI50 with OVCAR-5, with RPMI-8226, in the test on SK-MEL-5, in the test with SW-620, with SK-MEL-2 and in the test on CAKI-1 was > 100 µM (inactive) in each case. For the same compound, the GI50 with K562, in the test with Malme-3M, in the test with SF-539, with SNB-75, with HOP-62 and in the test on SF-268 was > 100 µM (inactive) throughout. Moreover, the GI50 in the test on U-251 is > 100 µM (inactive).

Consider `COC(=O)/C(=N/O)C(C(=O)C=C(C)C)C(=O)C(=O)Nc1nc2ccc([N+](=O)[O-])cc2s1` (stereo not drawn), for which the GI50 with SNB-19 was 67.9 µM (inactive); in the test with A549 it was 30.8 µM (inactive); in the test on NCI-H226, 23.6 µM (inactive); in the test on UACC-257 it was 44.6 µM (inactive); with HCT-15 it was 30.7 µM; in the test with OVCAR-4, 31.8 µM (inactive). Besides, the GI50 is 37.7 µM (inactive) in the test on OVCAR-5; 27.9 µM (inactive) in the test on RPMI-8226; 43.8 µM (inactive) in the test on SK-MEL-5; 33.8 µM (inactive) with SW-620; 25.8 µM (inactive) in the test with SK-MEL-2; 24.2 µM (inactive) with CAKI-1. Besides, the GI50 was 28.9 µM (inactive) in the test with K562; 27.5 µM (inactive) in the test with Malme-3M; 23.2 µM (inactive) in the test with SF-539; 32.9 µM (inactive) in the test on HOP-62; 28.3 µM (inactive) in the test on SF-268; 37.9 µM (inactive) in the test on NCI-H460. Moreover, the GI50 in the test on U-251 was 49.5 µM (inactive).

On to `COc1cc2cc(C(=O)N3CC(CCl)c4ccc([N+](C)(C)Cc5ccccc5[N+](=O)[O-])cc43)[nH]c2c(OC)c1OC` (stereo not drawn), for which the GI50 was 2.36 µM (inactive) in the test on SNB-19; 0.314 µM (active) in the test on A549; 1.48 µM (inactive) with NCI-H226; 1.66 µM (inactive) with UACC-257; 2.14 µM in the test with HCT-15; 2.41 µM (inactive) with OVCAR-4. The GI50 with OVCAR-5 was 2.66 µM (inactive); in the test on RPMI-8226, 1.3 µM (inactive); in the test on SK-MEL-5 it was 0.875 µM (active); in the test with SW-620 it was 2.01 µM (inactive); in the test on SK-MEL-2, 1.89 µM (inactive); with CAKI-1, 1.01 µM (active). Further, the GI50 with K562 is 1.71 µM (inactive); in the test on Malme-3M, 1.73 µM (inactive); with SF-539, 1.63 µM (inactive); with SNB-75 it was 4.09 µM (inactive); in the test on HOP-62 it was 2.94 µM (inactive); with SF-268, 1.71 µM (inactive). Further, in the test with U-251, the GI50 is 2.18 µM (inactive).

For `CC(C)CCC[C@@H](C)[C@H]1CC[C@H]2C3=C[C@H](OS(=O)(=O)O)[C@@]4(O)C[C@@H](O)CC[C@]4(C)[C@@]3(O)CC[C@]12C`, the GI50 with SNB-19 was > 100 µM (inactive); in the test with A549 it was > 100 µM (inactive); with NCI-H226, 60 µM (inactive); with UACC-257, > 100 µM (inactive); with HCT-15, greater than 100 µM; in the test on OVCAR-4, > 100 µM (inactive). Further, the GI50 with OVCAR-5, in the test with RPMI-8226, with SK-MEL-5, with SW-620, with SK-MEL-2 and with CAKI-1 was > 100 µM (inactive) each time. For the same compound, the GI50 in the test on K562 is 45.6 µM (inactive); with Malme-3M it was > 100 µM (inactive); in the test with SF-539, > 100 µM (inactive); in the test on HOP-62 it was > 100 µM (inactive); with SF-268, > 100 µM (inactive); in the test on NCI-H460, > 100 µM (inactive). Further, in the test on U-251, the GI50 is > 100 µM (inactive).

For the compound `CC(=O)OCC1OC(n2ncc(=O)[nH]c2=O)C(OC(C)=O)C1OC(C)=O` (stereo not drawn), the GI50 is 8.97 µM (inactive) in the test on A549; 15.3 µM (inactive) in the test on NCI-H226; 3.41 µM in the test on HCT-15; > 100 µM (inactive) in the test with OVCAR-4; > 100 µM (inactive) with OVCAR-5; > 100 µM (inactive) with RPMI-8226. The GI50 is 19.3 µM (inactive) with SK-MEL-5; 1.4 µM (inactive) in the test with SW-620; 9.4 µM (inactive) in the test with CAKI-1; 0.832 µM (active) in the test on K562; > 100 µM (inactive) in the test with Malme-3M; 30.3 µM (inactive) in the test on SF-539. For the same compound, the GI50 with SNB-75 was 40.3 µM (inactive); in the test with HOP-62 it was 21.7 µM (inactive); with SF-268, 5.33 µM (inactive); in the test on NCI-H460, 1.17 µM (inactive); with U-251, 1.09 µM (active).

As for `O=C1NC(N2CCCC(CO)C2)=N/C1=C\c1cccs1` (stereo not drawn), the GI50 with SNB-19 is > 100 µM (inactive); in the test with A549, > 100 µM (inactive); with NCI-H226, > 100 µM (inactive); with UACC-257, > 100 µM (inactive); in the test on HCT-15, greater than 100 µM; in the test on OVCAR-4, > 100 µM (inactive). In addition, the GI50 in the test with OVCAR-5, with RPMI-8226, in the test on SK-MEL-5, in the test with SW-620, in the test on SK-MEL-2 and in the test with CAKI-1 was > 100 µM (inactive) throughout. For the same compound, the GI50 with K562 was > 100 µM (inactive); with Malme-3M it was > 100 µM (inactive); with SF-539, > 100 µM (inactive); with SNB-75 it was 98.2 µM (inactive); with HOP-62 it was > 100 µM (inactive); in the test on SF-268, > 100 µM (inactive). Moreover, the GI50 with U-251 was > 100 µM (inactive).

With `OCC1CC2CC1C1(C2)OCCO1` (stereo not drawn), the GI50 with SNB-19, with A549, in the test with NCI-H226, in the test with UACC-257, in the test with OVCAR-4 and with OVCAR-5 was > 100 µM (inactive) throughout. In addition, the GI50 with RPMI-8226, with SK-MEL-5, in the test with SW-620, in the test with SK-MEL-2, in the test on CAKI-1 and with K562 was > 100 µM (inactive) each time. For the same compound, the GI50 with Malme-3M, in the test with SF-539, with SNB-75, in the test on HOP-62, with SF-268 and with NCI-H460 was > 100 µM (inactive) in each case. The GI50 in the test with U-251 is > 100 µM (inactive).

As for `CCOC(=O)c1c(N2CCCC2)[nH]c(=O)c(C(c2ccc(N(C)C)cc2)c2c(O)c(C(=O)OCC)c(N3CCCC3)[nH]c2=O)c1O`, the GI50 with SNB-19 is > 100 µM (inactive); in the test on A549, > 100 µM (inactive); in the test on NCI-H226, > 100 µM (inactive); in the test on UACC-257, > 100 µM (inactive); in the test with HCT-15, greater than 100 µM; in the test on OVCAR-4, > 100 µM (inactive). For the same compound, the GI50 in the test with OVCAR-5, in the test with RPMI-8226, in the test on SK-MEL-5, with SW-620, in the test on CAKI-1 and with K562 was > 100 µM (inactive) each time. The GI50 in the test on Malme-3M is > 100 µM (inactive); in the test with SF-539 it was > 100 µM (inactive); in the test with SNB-75 it was 48.5 µM (inactive); in the test with HOP-62 it was > 100 µM (inactive); in the test with SF-268, > 100 µM (inactive); in the test on NCI-H460, > 100 µM (inactive). Besides, in the test on U-251, the GI50 is > 100 µM (inactive).

In the case of `O=C(Nc1nccs1)NS(=O)(=O)n1cnc2ccccc21`, the GI50 was > 100 µM (inactive) in the test on SNB-19; > 100 µM (inactive) in the test on A549; > 100 µM (inactive) in the test on NCI-H226; > 100 µM (inactive) with UACC-257; greater than 100 µM in the test on HCT-15; > 100 µM (inactive) in the test with OVCAR-4. Besides, the GI50 with OVCAR-5, in the test with RPMI-8226, in the test on SK-MEL-5, in the test on SW-620, in the test with SK-MEL-2 and in the test with CAKI-1 was > 100 µM (inactive) throughout. For the same compound, the GI50 in the test on Malme-3M, with SF-539, in the test on SNB-75, in the test on HOP-62, in the test with SF-268 and with NCI-H460 was > 100 µM (inactive) throughout. Further, the GI50 in the test on U-251 was > 100 µM (inactive).
